Source: US20210386738A1, “COMBINATION OF PRMT5 INHIBITORS AND BCL-2 INHIBITORS” (GLAXOSMITHKLINE INTELLECTUAL PROPERTY DEVELOPMENT LIMITED, priority 2018, published 2021)
Like-named read-outs stand apart in the source and are kept apart here. Each block holds one molecule with its values, some of them ahead of it.

Test system: lymphoma cell line DB
Assay: Serial dilutions: fixed ABT-199 concentration with Compound A titration, six-day cell proliferation
Assay type: cell-based
Details: for EC50 / IC50: 144 h; for EC50 / IC50 / gIC100 / compound A required for gIC100: six days
Procedure: Serial dilutions were performed for the combination to ascertain the change in gIC50, gIC100 and dEC50 when the inhibitors are used together in a PRMT5 inhibitor cell proliferation. A first compound plate was prepared where PRMT5 inhibitor, Compound A, was prepared with a 20-point, two-fold dilution series of compound A from column 1 to 20. A second compound plate was prepared using the BCL-2 inhibitor ABT-199. ABT-199 was titrated in a 16-point 2-fold dilution series from row A to Q. A third plate was then created by added equal volume of 12 ul (ABT-199) from each well in the second plate into the corresponding well in the first plate. The third plate comprised rows from A to Q, each row comprising a fixed concentration of ABT-199. Columns 1-20 comprised varying concentrations of compound A from the 20-point dilution. Plates were incubated for six days at the conditions described above. Lymphoma cell line DB was treated with the solution in each of the wells. Cell growth was measured using CellTiter-Glo (Promega) and luminescence signal was detected with a BioTek Synergy Neo microplate reader. A plate of untreated cells was read at the time of compound/biologic addition to determine the T0 value representing the starting number of cells. Data were fit with a four-parameter equation to generate a concentration response curve for each row using Assay Client software. A comparison was made across each row in the third plate to determine, when keeping a fixed concentration of ABT-199, what concentration of compound A is needed to reach the gIC50, gIC100 or dEC50 respectively and the fold change compared to treating the same cell with compound A alone.
Tables 4a-c show the results of the above serial dilution experiments wherein ‘fold change’ is the difference between the amount of compound A needed to achieve gIC50, gIC100 or dEC50 respectively, compared to the amount of compound A needed to achieve gIC50, gIC100 or dEC50 respectively when compound A is given as a single agent.

[1] = fixed ABT-199 with compound A titration, vs compound A alone

EC50 (single agent, read-out: dEC50): > 7330 nM | IC50 (single agent, read-out: gIC50): 6410 nM
Structure (SMILES): CC1(C)CCC(CN2CCN(c3ccc(C(=O)NS(=O)(=O)c4ccc(NCC5CCOCC5)c([N+](=O)[O-])c4)c(Oc4cnc5[nH]ccc5c4)c3)CC2)=C(c2ccc(Cl)cc2)C1 [ABT-199, venetoclax, reference compound]
concentration of ABT-199 at which ≥3 fold change was achieved in dEC50 (fixed ABT-199 with compound A titration): 1833 nM | concentration of ABT-199 at which ≥3 fold change was achieved in gIC50 [1]: 115 nM | concentration of ABT-199 at which ≥3 fold change was achieved in gIC100 [1]: 458 nM | gIC100 (single agent): 7.331 µM

EC50 (single agent, read-out: dEC50): > 7330 nM | IC50 (single agent, read-out: gIC50): 631 nM | EC50 (with fixed ABT-199 1 nM, read-out: Compound A required for dEC50): > 7330 nM | IC50 (with fixed ABT-199 1 nM, read-out: compound A required for gIC50): 445 nM | EC50 (with fixed ABT-199 2 nM, read-out: Compound A required for dEC50): > 7330 nM | IC50 (with fixed ABT-199 2 nM, read-out: compound A required for gIC50): 509 nM | EC50 (with fixed ABT-199 4 nM, read-out: Compound A required for dEC50): > 7330 nM | IC50 (with fixed ABT-199 4 nM, read-out: compound A required for gIC50): 514 nM | EC50 (with fixed ABT-199 7 nM, read-out: Compound A required for dEC50): > 7330 nM | IC50 (with fixed ABT-199 7 nM, read-out: compound A required for gIC50): 449 nM | EC50 (with fixed ABT-199 14 nM, read-out: Compound A required for dEC50): > 7330 nM | IC50 (with fixed ABT-199 14 nM, read-out: compound A required for gIC50): 387 nM | EC50 (with fixed ABT-199 29 nM, read-out: Compound A required for dEC50): > 7330 nM | IC50 (with fixed ABT-199 29 nM, read-out: compound A required for gIC50): 351 nM | EC50 (with fixed ABT-199 57 nM, read-out: Compound A required for dEC50): 5370 nM | IC50 (with fixed ABT-199 57 nM, read-out: compound A required for gIC50): 247 nM | EC50 (with fixed ABT-199 115 nM, read-out: Compound A required for dEC50): 4660 nM | IC50 (with fixed ABT-199 115 nM, read-out: compound A required for gIC50): 209 nM | EC50 (with fixed ABT-199 229 nM, read-out: Compound A required for dEC50): 4660 nM | IC50 (with fixed ABT-199 229 nM, read-out: compound A required for gIC50): 115 nM | EC50 (with fixed ABT-199 458 nM, read-out: Compound A required for dEC50): 3920 nM | IC50 (with fixed ABT-199 458 nM, read-out: compound A required for gIC50): 119 nM | EC50 (with fixed ABT-199 916 nM, read-out: Compound A required for dEC50): 2530 nM | IC50 (with fixed ABT-199 916 nM, read-out: compound A required for gIC50): 78 nM | EC50 (with fixed ABT-199 1833 nM, read-out: Compound A required for dEC50): 2390 nM | IC50 (with fixed ABT-199 1833 nM, read-out: compound A required for gIC50): 74 nM | EC50 (with fixed ABT-199 3666 nM, read-out: Compound A required for dEC50): 2250 nM | IC50 (with fixed ABT-199 3666 nM, read-out: compound A required for gIC50): 80 nM | EC50 (with fixed ABT-199 7331 nM, read-out: Compound A required for dEC50): 2300 nM | IC50 (with fixed ABT-199 7331 nM, read-out: compound A required for gIC50): 15 nM
Structure (SMILES): O=C(NC[C@H](O)CN1CCc2ccccc2C1)c1ccnc(NC2CCC2)c1 [Compound A]
Fold change over compound A single agent gIC50 (631 nM, most potent of the two agents) (single agent): 1.0 | Fold change over compound A single agent gIC100 (6489 nM, most potent of the two agents) (single agent): 1.0 | gIC100 (single agent): 6.489 µM | Fold change over compound A single agent gIC50 (631 nM, most potent of the two agents) (with fixed ABT-199 1 nM): 1.4 | Fold change over compound A single agent gIC100 (6489 nM, most potent of the two agents) (with fixed ABT-199 1 nM): 0.9 | compound A required for gIC100 (with fixed ABT-199 1 nM): 7331 nM | Fold change over compound A single agent gIC50 (631 nM, most potent of the two agents) (with fixed ABT-199 2 nM): 1.2 | Fold change over compound A single agent gIC100 (6489 nM, most potent of the two agents) (with fixed ABT-199 2 nM): 0.9 | compound A required for gIC100 (with fixed ABT-199 2 nM): 7331 nM | Fold change over compound A single agent gIC50 (631 nM, most potent of the two agents) (with fixed ABT-199 4 nM): 1.2 | Fold change over compound A single agent gIC100 (6489 nM, most potent of the two agents) (with fixed ABT-199 4 nM): 0.9 | compound A required for gIC100 (with fixed ABT-199 4 nM): 6989 nM | Fold change over compound A single agent gIC50 (631 nM, most potent of the two agents) (with fixed ABT-199 7 nM): 1.4 | Fold change over compound A single agent gIC100 (6489 nM, most potent of the two agents) (with fixed ABT-199 7 nM): 1.0 | compound A required for gIC100 (with fixed ABT-199 7 nM): 6362 nM | Fold change over compound A single agent gIC50 (631 nM, most potent of the two agents) (with fixed ABT-199 14 nM): 1.6 | Fold change over compound A single agent gIC100 (6489 nM, most potent of the two agents) (with fixed ABT-199 14 nM): 0.9 | compound A required for gIC100 (with fixed ABT-199 14 nM): 6896 nM | Fold change over compound A single agent gIC50 (631 nM, most potent of the two agents) (with fixed ABT-199 29 nM): 1.8 | Fold change over compound A single agent gIC100 (6489 nM, most potent of the two agents) (with fixed ABT-199 29 nM): 1.2 | compound A required for gIC100 (with fixed ABT-199 29 nM): 5525 nM | Fold change over compound A single agent gIC50 (631 nM, most potent of the two agents) (with fixed ABT-199 57 nM): 2.6 | Fold change over compound A single agent gIC100 (6489 nM, most potent of the two agents) (with fixed ABT-199 57 nM): 2.2 | Fold change over top concentration of compound A or ABT-199 inhibitor used in the assay (since no dEC50 observed with single agents) (with fixed ABT-199 57 nM): 1.2 | compound A required for gIC100 (with fixed ABT-199 57 nM): 3004 nM | Fold change over compound A single agent gIC50 (631 nM, most potent of the two agents) (with fixed ABT-199 115 nM): 3.0 | Fold change over compound A single agent gIC100 (6489 nM, most potent of the two agents) (with fixed ABT-199 115 nM): 2.4 | Fold change over top concentration of compound A or ABT-199 inhibitor used in the assay (since no dEC50 observed with single agents) (with fixed ABT-199 115 nM): 1.4 | compound A required for gIC100 (with fixed ABT-199 115 nM): 2716 nM | Fold change over compound A single agent gIC50 (631 nM, most potent of the two agents) (with fixed ABT-199 229 nM): 5.5 | Fold change over compound A single agent gIC100 (6489 nM, most potent of the two agents) (with fixed ABT-199 229 nM): 2.5 | Fold change over top concentration of compound A or ABT-199 inhibitor used in the assay (since no dEC50 observed with single agents) (with fixed ABT-199 229 nM): 1.4 | compound A required for gIC100 (with fixed ABT-199 229 nM): 2624 nM | Fold change over compound A single agent gIC50 (631 nM, most potent of the two agents) (with fixed ABT-199 458 nM): 5.3 | Fold change over compound A single agent gIC100 (6489 nM, most potent of the two agents) (with fixed ABT-199 458 nM): 3.1 | Fold change over top concentration of compound A or ABT-199 inhibitor used in the assay (since no dEC50 observed with single agents) (with fixed ABT-199 458 nM): 1.7 | compound A required for gIC100 (with fixed ABT-199 458 nM): 2118 nM | Fold change over compound A single agent gIC50 (631 nM, most potent of the two agents) (with fixed ABT-199 916 nM): 8.1 | Fold change over compound A single agent gIC100 (6489 nM, most potent of the two agents) (with fixed ABT-199 916 nM): 3.3 | Fold change over top concentration of compound A or ABT-199 inhibitor used in the assay (since no dEC50 observed with single agents) (with fixed ABT-199 916 nM): 2.6 | compound A required for gIC100 (with fixed ABT-199 916 nM): 1994 nM | Fold change over compound A single agent gIC50 (631 nM, most potent of the two agents) (with fixed ABT-199 1833 nM): 8.5 | Fold change over compound A single agent gIC100 (6489 nM, most potent of the two agents) (with fixed ABT-199 1833 nM): 4.0 | Fold change over top concentration of compound A or ABT-199 inhibitor used in the assay (since no dEC50 observed with single agents) (with fixed ABT-199 1833 nM): 3.1 | compound A required for gIC100 (with fixed ABT-199 1833 nM): 1604 nM | Fold change over compound A single agent gIC50 (631 nM, most potent of the two agents) (with fixed ABT-199 3666 nM): 7.8 | Fold change over compound A single agent gIC100 (6489 nM, most potent of the two agents) (with fixed ABT-199 3666 nM): 3.7 | Fold change over top concentration of compound A or ABT-199 inhibitor used in the assay (since no dEC50 observed with single agents) (with fixed ABT-199 3666 nM): 3.3 | compound A required for gIC100 (with fixed ABT-199 3666 nM): 1745 nM | Fold change over compound A single agent gIC50 (631 nM, most potent of the two agents) (with fixed ABT-199 7331 nM): 43 | Fold change over compound A single agent gIC100 (6489 nM, most potent of the two agents) (with fixed ABT-199 7331 nM): 3.8 | Fold change over top concentration of compound A or ABT-199 inhibitor used in the assay (since no dEC50 observed with single agents) (with fixed ABT-199 7331 nM): 3.2 | compound A required for gIC100 (with fixed ABT-199 7331 nM): 1707 nM
